Results reported in patent US20110009469A1, “COMPOSITIONS AND METHODS OF TREATING NEOPLASIA” (The Johns Hopkins University, priority 2007, published 2011).

Columns and labels:
Type in all cases: cell-based
[1] = tested on: miR-143 and miR-145 expression in HPNE-Kras^G12D cells; assay: miR-143 and miR-145 expression by northern blot and qRT-PCR in HPNE-Kras^G12D cells; conditions: HPNE-Kras^G12D cells treated with inhibitor
Source text: (§1) Vista was used to generate pairwise alignments between the genomic sequence from human (May 2004 assembly) and the indicated species. The graph is a plot of nucleotide identity for a 100-bp sliding window centered at a given position. […] Expression of RNA transcripts was normalized to β-actin. FIG. 3C is a graph showing the results of a quantitative RT-PCR analysis of miR-143 and miR-145 expression in the cell lines described above. miRNA expression was normalized to 18S RNA. Error bars represent standard deviations.
(§2) U6 served as a loading control. […] Error bars represent standard deviations.
(§3) HPNE-Kras^G12D cells were infected with the anti-RREB-1 lentivirus-shRNA construct and selected in neomycin.
(§4) Kras activity leads to activation of both the Map Kinase (MAPK) cascade (also known as the RAF/MEK/MAPK pathway) and the phosphatidylinositol-3 kinase (PI3K) pathway. In order to determine which of these downstream effector pathways is involved in the Kras-RREB1-miR-143/145 pathway, levels of miR-143 and miR-145 were examined in HPNE-Kras^G12D cells treated with specific inhibitors that target MAPK and PI3K.

[2] = tested on: miR-143/145 primary transcript in HPNE-Kras^G12D cells; assay: quantitative RT-PCR of miR-143/145 primary transcript in HPNE-Kras^G12D cells; conditions: HPNE-Kras^G12D cells treated with inhibitor; qRT-PCR
Source text: as §1, §2, §3, §4

[3] = tested on: RREB-1 expression in HPNE-Kras^G12D cells; assay: qPCR of RREB-1 expression in HPNE-Kras^G12D cells; conditions: HPNE-Kras^G12D cells treated with inhibitor
Source text: as §1, §2, §3, §4

SMILES | miR-143 and miR-145 expression [1] | level of the miR-143/145 primary transcript [2] | RREB-1 expression [3]
O=c1cc(N2CCOCC2)oc2c(-c3ccccc3)cccc12 [LY294002] | no effect | – | –
N#CC(=C(/N)Sc1ccccc1N)/C(C#N)=C(\N)Sc1ccccc1N [U0126, 1,4-diamino-2,3-dicyano-1,4-bis(2-aminophenylthio)butadiene] | significant increase | increased | decreased
